How the values were obtained:
[1] = test system: microglia cell line (BV2); experiment: LPS-induced pro-inflammatory cytokine production in a microglia cell line; format: cell-based, mouse
Text: The direct effect of DMM on microglia was examined by conducting an in vitro experiment using a microglia cell line (BV2).
(§1) It is known in the art that a key event in the LPS-induced macrophage activation is the over-production of mitochondrial ROS driven by the hyperpolarization of mitochondrial membrane potential and SDH-accelerated succinate oxidation (Mills et al., 2016). However, for the retina, it is challenging to perform live ROS measurement, because enucleation causes an acute ROS surge due to severing of the optic nerve. Thus, a method was developed to visualize in situ mitochondrial ROS production in thirteen lined ground squirrel (TLGS) retina with optic nerve crush (ONC), that used a mitochondrial ROS dye—MitoNeoD (Shchepinova et al., 2017). […] In active TLGS retina with partial ONC injuries, it was observed that above the optic nerve fiber/RGC layers there were cells decorated with bright MitoNeoOH (oxidized and fluorescent form of MitoNeoD) signals (arrows in FIG. 6D) overlapping with a mitochondrial protein marker (TOM20) (FIGS. 7A, 7B, and 7C). These cells were then confirmed to be mostly microglial cells (FIGS. 7D, 7E, and 7F). It was then confirmed that intraocular injection of DMM indeed lowered SDH activity in the retina of ONC-injured active TLGSs (FIG. 8B).

[2] = test system: succinate dehydrogenase (SDH); experiment: SDH activity in the retina of ONC-injured active TLGSs; format: in vivo, thirteen lined ground squirrel (TLGS); conditions: intraocular injection
Text: as §1

[3] = test system: mitochondrial ROS; experiment: In situ mitochondrial ROS production in retina after partial ONC (MitoNeoD dye); format: in vivo, thirteen lined ground squirrel (TLGS); conditions: active TLGSs with ONC; intraocular injection
Text: as §1

[4] = test system: retina ganglion cells (RGCs); experiment: Optic nerve crush (ONC), retina ganglion cell survival; format: in vivo, ground squirrel; conditions: awake animals; injected into the eye before and after the ONC surgery
Text: Previous work has shown that succinate regulates macrophages, causing them to switch between pro-inflammatory and anti-inflammatory states (Mills, et al., (2016) Succinate Dehydrogenase Supports Metabolic Repurposing of Mitochondria to Drive Inflammatory Macrophages. Cell, […]; 457-470.e13). Thus, the inventors hypothesized that immune regulation due to reduced succinate levels may occur in the retina during hibernation, and that this may subsequently affect cellular response to neural injury. To test this hypothesis, optic nerve crush (ONC), a classic axonal injury experiment, was performed in awake and in hibernating ground squirrels. Retina ganglion cells (RGCs) appeared to survive ONC during hibernation (FIG. 4). Intriguingly, a key cellular response difference between awake and hibernating animals to ONC is microglial aggregation and activation, in line with the hypothesis that low succinate level during hibernation may prevent microglia from activation in response to injury. To further test this hypothesis, a second experiment was done in which dimethyl malonate (DMM), an inhibitor of SDH, was injected into the eye before and after the ONC surgery in awake animals to create a lower succinate condition, thereby mimicking hibernation. […] To further examine the role of microglia, microglia were pharmacologically eliminated before ONC surgery in awake animals. […]

[5] = cultured microglial cells, 100 ng/ml LPS + 1 mM or 10 mM DMM
[6] = mouse BV-2, concentration not given

## COC(=O)CC(=O)OC [DMM, dimethyl malonate]
[1]; BV2, DMM 1 or 10 mM
  response of microglia to LPS: significantly attenuated
[1]; [5]
  production of IL1A: significantly reduced
  production of MCP-1: significantly reduced
[1]; [6]
  LPS-induced production of IL-1α: effectively reduced
  LPS-induced production of IL-6: effectively reduced
  LPS-induced production of MCP-1: effectively reduced
[2]
  SDH activity in the retina: lowered
[3]
  mitochondrial ROS production: significantly alleviated
[4]
  RGC survival after ONC: significantly improved

— patent US12011426B2, “Methods of metabolic regulation of mitochondria for treating neural injury and neurological disorders” (The USA, as represented by the Secretary, Dept. of Health …, priority 2018, dated 2024)
